According to PubChem BioAssay AID206 (DTP/NCI, 2004):
Where “and” joins values, the source holds several entries; their conditions need not be identical. Equal entries are not always repeated. Records with an inconclusive call do not appear.

Tested on: nude mice, HT29 intrarenal xenograft, tumor weight T/C
Test: NCI In Vivo Anticancer Drug Screen. Data for tumor model HT29;CX-1 Human Adenocarcinoma (MER+) (intrarenal inoculation) in NU/NU Swiss (nude) mice
Settings: endpoint: mean tumor weight change, higher = larger tumour
How it was run: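 Mice with transplanted tumors are dosed with compound while controls get vehicle only. Survival or tumor burden is then assessed per group, and the treated value is expressed relative to control.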

[1] = dose: 100.0 mg/kg/injection, schedule: Q04DX004 (sc), vehicle: saline with Tween-80
[2] = dose: 200.0 mg/kg/injection, schedule: Q04DX004 (sc), vehicle: saline with Tween-80

With `C1CN(P2(N3CC3)=NP(N3CC3)(N3CC3)=NP(N3CC3)(N3CC3)=N2)CCO1` (stereo unspecified) the T/C (dose: 6.25 mg/kg/injection, schedule: Q01DX010 (sc), vehicle: saline) was 50 % of control, the T/C (dose: 12.5 mg/kg/injection, schedule: Q01DX010 (sc), vehicle: saline) was 52 % of control and the T/C (dose: 25.0 mg/kg/injection, schedule: Q01DX010 (sc), vehicle: saline) was 27 % of control.
`COc1ccc(OC)c(Cc2cnc3nc(N)nc(N)c3c2C)c1` was tested, and the T/C (dose: 150.0 mg/kg/injection, schedule: Q04DX004 (sc), vehicle: water) was 116 % of control and the T/C (dose: 300.0 mg/kg/injection, schedule: Q04DX004 (sc), vehicle: water) was 54 % of control.
In the case of `Cc1c(N)nc(C(CC(N)=O)NCC(N)C(N)=O)nc1C(=O)NC(C(=O)NC(C)C(O)C(C)C(=O)NC(C(=O)NCCc1nc(-c2nc(C(=O)NCCCNCCCc3ccccn3)cs2)cs1)C(C)O)C(OC1OC(CO)C(O)C(O)C1OC1OC(CO)C(O)C(OC(N)=O)C1O)c1cnc[nH]1` (stereo unspecified), the T/C (dose: 9.0 mg/kg/injection, schedule: Q04DX004 (sc), vehicle: water) is reported as 164 % of control, the T/C (dose: 18.0 mg/kg/injection, schedule: Q04DX004 (sc), vehicle: water) is reported as 120 % of control and the T/C (dose: 36.0 mg/kg/injection, schedule: Q04DX004 (sc), vehicle: water) is reported as 90 % of control.
`Nc1ccc(C(OC(=O)c2cc3ccccc3c(Cc3c(O)c(C(=O)OC(c4ccc(N)cc4)(c4ccc(N)cc4)c4ccc(N)cc4)cc4ccccc34)c2O)(c2ccc(N)cc2)c2ccc(N)cc2)cc1` was tested, and the T/C (dose: 36.0 mg/kg/injection, schedule: Q04DX004 (sc), vehicle: saline with Tween-80) was 118 % of control, the T/C (dose: 72.0 mg/kg/injection, schedule: Q04DX004 (sc), vehicle: saline with Tween-80) was 70 % of control and the T/C (dose: 144.0 mg/kg/injection, schedule: Q04DX004 (sc), vehicle: saline with Tween-80) was 68 % of control. The T/C (dose: 150.0 mg/kg/injection, schedule: Q04DX004 (sc), vehicle: saline with Tween-80) was 94 % of control and the T/C (dose: 300.0 mg/kg/injection, schedule: Q04DX004 (sc), vehicle: saline with Tween-80) was 55 % of control.
`Clc1ccc2nnnn2n1` was tested, and the T/C [1] was 114 % of control and the T/C [2] was 45 % of control.
With `CC[C@]1(O)C[C@H]2CN(CCc3c([nH]c4ccccc34)[C@@](C(=O)OC)(c3cc4c(cc3OC)N(C=O)[C@H]3[C@@](O)(C(=O)OC)[C@H](OC(C)=O)[C@]5(CC)C=CCN6CC[C@]43[C@@H]65)C2)C1` the T/C (dose: 0.13 mg/kg/injection, schedule: Q01DX010 (sc), vehicle: saline) was 86 % of control and the T/C (dose: 0.25 mg/kg/injection, schedule: Q01DX010 (sc), vehicle: saline) was 84 % of control.
For `[Cl][Pt+2][Cl].[NH-]CC1(C[NH-])CCC1`, the T/C (dose: 12.5 mg/kg/injection, schedule: Q04DX004 (sc), vehicle: suspension in saline) was 87 % of control and the T/C (dose: 25.0 mg/kg/injection, schedule: Q04DX004 (sc), vehicle: suspension in saline) was 61 % of control.
For `COC1C(O)CC(OC2CC(OC3CC(O[C@@H]4C(=O)c5c(cc6cc(OC7CC(OC8CC(O)C(O)C(C)O8)C(O)C(C)O7)c(C)c(O)c6c5O)C[C@H]4[C@H](OC)C(=O)[C@@H](O)[C@@H](C)O)OC(C)C3O)OC(C)C2O)OC1C` (stereo partly specified), the T/C (dose: 0.75 mg/kg/injection, schedule: Q01DX010 (sc), vehicle: saline) was 27 % of control and 50 % of control and the T/C (dose: 1.5 mg/kg/injection, schedule: Q01DX010 (sc), vehicle: saline) was 29 % of control and 41 % of control.
With `[CH3][Sn]([CH3])([Cl])[S]CCN` the T/C (dose: 18.75 mg/kg/injection, schedule: Q04DX004 (sc), vehicle: suspension in saline) was 92 % of control, the T/C (dose: 37.5 mg/kg/injection, schedule: Q04DX004 (sc), vehicle: suspension in saline) was 65 % of control and the T/C (dose: 75.0 mg/kg/injection, schedule: Q04DX004 (sc), vehicle: suspension in saline) was 40 % of control.
`O=c1cc(-c2ccccc2)[nH]c2c1CCCC2` was tested, and the T/C [1] was 82 % of control, the T/C [2] was 70 % of control and the T/C (dose: 400.0 mg/kg/injection, schedule: Q04DX004 (sc), vehicle: saline with Tween-80) was 67 % of control. The T/C (dose: 600.0 mg/kg/injection, schedule: Q04DX004 (sc), vehicle: saline with Tween-80) was 37 % of control, the T/C (dose: 800.0 mg/kg/injection, schedule: Q04DX004 (sc), vehicle: saline with Tween-80) was 68 % of control and the T/C (dose: 1200.0 mg/kg/injection, schedule: Q04DX004 (sc), vehicle: saline with Tween-80) was 58 % of control. For the same compound, the T/C (dose: 2400.0 mg/kg/injection, schedule: Q04DX004 (sc), vehicle: saline with Tween-80) was 101 % of control.
For `Nc1ccc(Cl)cc1N`, the T/C (dose: 450.0 mg/kg/injection, schedule: Q04DX004 (sc), vehicle: saline with Tween-80) was 41 % of control, the T/C (dose: 900.0 mg/kg/injection, schedule: Q04DX004 (sc), vehicle: saline with Tween-80) was 78 % of control and the T/C (dose: 1800.0 mg/kg/injection, schedule: Q04DX004 (sc), vehicle: saline with Tween-80) was 30 % of control.
For `CN(C)C=O`, the T/C (dose: 400.0 mg/kg/injection, schedule: Q01DX010 (sc), vehicle: saline) was 186 % of control and the T/C (dose: 3200.0 mg/kg/injection, schedule: Q01DX010 (sc), vehicle: saline) was 48 % of control and 49 % of control.
